Test results taken from patent US20220332839A1, “USE OF PRG4 TO TREAT CANCER” (Lubris LLC, priority 2019, published 2022).

How the values were obtained:
[1] = system: HLE, HLF and PLC/DC/19 cells; assay: 72-hour proliferation assay, CD44 positive HCC cells; format: cell-based, human; conditions: drug 2.5 μM, rhPRG4 12.5 to 100 μg/ml
Method: Proliferation assay: In 100 μl complete medium, 3,000 cells were seeded in wells of a 96-well plate and left overnight to allow complete attachment. The next day (at time t=0 hours), the medium was removed and replaced with 100 μl of fresh medium in the presence/absence of Sorafenib (2.5 μM), Regorafenib (2.5 μM), rhPRG4 (12.5 to 100 μg/ml). Dimethyl sulfoxide (DMSO) and PBS+0.01% Tween-20 were used as vehicles of Sorafenib/Regorafenib, and rhPRG4, respectively. Cells in triplicate wells for each cell line were fixed at t=0 hours with 4% paraformaldehyde (PFA, pH 7.6, 10 min incubation), then stained with crystal violet (CV) and thoroughly washed to remove the excess staining. After 72 hours, the cells were fixed by adding 100 μl of 4% PFA directly to the medium (2% final PFA concentration, 20 min incubation), and processed for CV staining as previously described. Then, 100 or 200 μl of 1% sodium dodecyl-sulphate were added to the wells and the plates were left under shaking until complete CV release from stained cells. Optical density was at 595 nm wavelength measured using a plate reader.
Characterization of the primary HCC cells line PLC/DC/19: The primary HCC cell line, PLC/DC/19, was isolated from freshly collected surgically resected HCC specimen following the same isolation procedure to isolate CAFs. […]

colon cancer = assay: Treatment of a human with colon cancer, systemic administration; format: in vivo; conditions: 500 mg rhPRG4 via central venous catheter, once weekly for four weeks
Method: An 80 kg human diagnosed with colon cancer is administered recombinant human PRG4 (rhPRG4) by systemic administration via a central venous catheter. A total amount of 500 mg of rhPRG4 in 250 mL of physiological saline at a concentration of 2.0 mg/mL of lubricin is administered to create a blood concentration of approximately 100 μg/mL. The dose is administered once weekly for four weeks.

immobilized CD44-IgG1Fc = target: T1, immobilized CD44-IgG1Fc (Homo sapiens, UniProt P16070); assay: Surface plasmon resonance binding of rhPRG4 to CD44 and competition with HMW HA
T1 construct: purchased R & D systems
Method: Binding of rhPRG4 to CD44-IgG1Fc was investigated using surface plasmon resonance (Biacore T100, GE Healthcare Lifesciences, NJ, USA). Series S chips were functionalized using the human antibody capture kit (GE Life Sciences) and either CD44-IgG1Fc or IgG1FC was allowed to bind to the surface of the functionalized chips in flow cell 1 (Fc1) and flow cell 2 (Fc2), respectively. rhPRG4 was injected at 30 μL/min for 8 min at concentrations of 300, 250, 200, 150, 100 and 50 μg/mL followed by a 10 min dissociation using 0.1M HEPES, 1.5M NaCl, 30 mM EDTA, and 0.5% P20 (GE Life Sciences). The surface of the chip was regenerated at the end of each cycle with 1 min pulse of 3M MgCl2. Each analyte concentration was injected in duplicate. The resulting curves were double referenced (i.e. Fc2-Fc1, followed by subtraction of the 0 μg/mL curve). The binding kinetics and binding affinity were determined by BiaEvaluation software, using 1:1 binding/conformational change model or by steady-state equilibrium, respectively. To study the competition between rhPRG4 and HMW HA in binding to CD44, rhPRG4 was injected at concentrations ranging between 0 and 300 μg/mL as described above. Following the end of dissociation phase, HMW HA was injected at 50 μg/mL (30 μL per min) for 1 min. […]

Substance: rhPRG4: full-length recombinant human PRG4 (lubricin) glycoprotein produced by CHO-M cells; residues 25-1404 of SEQ ID NO:1
- effectiveness of Sorafenib or Regorafenib when coupled with rhPRG4 [1]: strongly and synergistically improved their effectiveness
- tumor size by CT scan after four weeks (colon cancer): decreased in size
- Kd (immobilized CD44-IgG1Fc; based on a rhPRG4 molecular weight of 240 KDa, read-out: apparent Kd): ~38 nM
- effect on binding of HMW HA to recombinant CD44 (immobilized CD44-IgG1Fc; rhPRG4 0-300 μg/mL, then HMW HA 50 μg/mL): interfered with binding of HMW HA
